# Test results taken from patent EP1038880B1, “Androstanes and pregnanes for allosteric modulation of GABA receptor” (priority 1994, dated 1995).
# Experiments:
# GR complex = assay: [35S]TBPS binding assay (inhibition of [35S]TBPS binding, cerebral cortex P2 homogenate); design: species or system rat; conditions: for modulation of [35S]TBPS binding, in words: even at very high concentrations (Figure 6); for IC50: 2 nM [35S]TBPS, rat cerebral cortex P2 homogenate; for IMAX: maximum inhibition of [35S]TBPS binding
# In short: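 Rat (male Sprague-Dawley) cortical P2 homogenate (0.5 mg protein) in 50 mM Na/K phosphate pH 7.4, 200 mM NaCl, incubated with 2 nM [35S]TBPS plus steroid test compounds (DMSO) in presence of GABA plus (+)bicuculline, 25°C, 90 min. Filtration, scintillation counting; nonspecific binding defined with […].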
# [1] = target: T1, Hippocampal Mineralocorticoid Receptors (Rattus norvegicus, UniProt P22199); assay: Inhibition of 3H-aldosterone binding, brain cytosol; design: species or system rats; conditions: competitor 10^-6M; 3 nM 3H-aldosterone, RU28362 0.5 µM
# T1 construct: To isolate the mineralocorticoid receptor, brain cytosol fractions were prepared; from tissue; host or cells: rat brain (hippocampal) cytosol
# T1 sequence (P22199 1-981): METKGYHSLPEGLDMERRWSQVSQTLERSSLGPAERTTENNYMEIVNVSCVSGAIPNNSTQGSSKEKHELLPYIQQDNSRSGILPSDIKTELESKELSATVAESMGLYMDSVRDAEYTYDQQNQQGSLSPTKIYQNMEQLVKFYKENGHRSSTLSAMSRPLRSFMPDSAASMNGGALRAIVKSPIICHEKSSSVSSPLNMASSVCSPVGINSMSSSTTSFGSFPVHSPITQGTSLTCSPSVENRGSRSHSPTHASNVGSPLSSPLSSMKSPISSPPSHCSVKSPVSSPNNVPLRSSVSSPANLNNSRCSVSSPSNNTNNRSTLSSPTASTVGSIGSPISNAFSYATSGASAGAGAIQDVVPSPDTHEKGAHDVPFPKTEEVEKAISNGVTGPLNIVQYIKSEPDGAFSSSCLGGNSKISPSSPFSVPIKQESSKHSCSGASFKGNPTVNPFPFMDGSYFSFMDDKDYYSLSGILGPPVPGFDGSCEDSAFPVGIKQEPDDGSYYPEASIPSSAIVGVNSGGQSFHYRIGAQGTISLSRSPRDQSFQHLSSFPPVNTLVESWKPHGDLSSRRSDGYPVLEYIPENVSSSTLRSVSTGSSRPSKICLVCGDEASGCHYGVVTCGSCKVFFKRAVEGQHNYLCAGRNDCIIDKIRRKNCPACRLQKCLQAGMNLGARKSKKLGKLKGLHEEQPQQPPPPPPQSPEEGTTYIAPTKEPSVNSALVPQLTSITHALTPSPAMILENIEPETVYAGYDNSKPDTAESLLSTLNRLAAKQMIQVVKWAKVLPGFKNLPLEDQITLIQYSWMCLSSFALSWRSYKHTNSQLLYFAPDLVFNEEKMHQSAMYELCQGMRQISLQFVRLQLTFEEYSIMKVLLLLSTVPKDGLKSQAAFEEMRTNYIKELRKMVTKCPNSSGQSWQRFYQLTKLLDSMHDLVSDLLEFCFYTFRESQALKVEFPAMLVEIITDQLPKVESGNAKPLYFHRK
# Method: Various hormonal activities of representative neuroactive steroids were further studied through testing their potential estrogenic, mineralocorticoid and glucocorticoid activities. These activities were analyzed by monitoring the ability of the compounds to inhibit binding of the steroid hormones to their respective hormone receptors.
# In Table 3, rats were adrenalectomized 3 days prior to sacrifice. […] Table 2. Inhibition of 3H-Progesterone Binding to the Bovine Uteral Progesterone Receptors
# Table 3. Inhibition of 3H-Aldosterone Binding to Hippocampal Mineralocorticoid Receptors
# Rats = assay: Vogel test; assay type: in vivo; conditions: i.c.v., g-CD
# Source text: The Vogel test is based on the development of a conflict between a highly motivated behavior and an aversion. For this test, the strong motivation is thirst. The animal is water deprived for 12-16 hrs to produce the motivation to drink. During the training period the animals are exposed to the testing environment so they become accustomed to the drinking spout and minimize the fear of a novel environment. Following training, the animals are allowed access to water for 2 hrs. During this time, the animals will drink and eat their normal amount of water and food, compensating for the deprivation time. However, this schedule still produces a strong motivation to drink during the testing period.
# Having been deprived of water for twelve to sixteen hours, an animal is placed in a test cage where it is allowed to drink freely for five minutes. This period is used to habituate the animal to the environment and the drinking spout. Following the training period, animals have access to water and food in their home cage for 2 hrs. Food is available at all times. Twenty-four hours later, drug is administered to the animal intracecebroventricularly.
# After an indicated delay started from the time of injection the animal is again placed in the test cage for ten minutes. A computer counts each time the animal licks, and after every twentieth lick administers a mild electric stimulus across the tongue and/or feet. The electrical stimulus consists of a 0.6 mA current with a duration of 100 msec. This procedure produces a state of conflict for the animal that is reduced by the administration of clinically used anxiolytic agents (i.e., Valium). For dose-response curves, separate groups of animals are injected with increasing doses of test drug and are tested at a predetermined time.
# Table 10. Anxiolytic Activity in Vogel Test in Rats
# [2] = test system: Bovine Uteral Progesterone Receptors; assay: Inhibition of 3H-progesterone binding, uterus cytosol; conditions: competitor 10^-6M; 3H-progesterone 0.15 nM
# Method: The data presented were obtained by performing assays in accordance with the procedures described in et al. 1988 previously to determine the effect of progesterone metabolites and their derivatives and the progestin R5020 on the binding of [^3H]R5020 to the progesterone receptor in rat uterus (Gee et al. 1988).
# ^3H-progesterone (0.15 nM) was incubated with the rat uterus cytosol in the presence of the test compounds. The specific binding were determined after incubation and compared to the control incubation without the compounds. The data are expressed as percent inhibition of binding.
# In Table 3, rats were adrenalectomized 3 days prior to sacrifice. To isolate the mineralocorticoid receptor, brain cytosol fractions were prepared as describe in Gee, et al. 1988. The drugs were incubated with 3 nM of ^3H-aldosterone (the specific ligand for the mineralocorticoid receptor) in the presence of the selective type II agonist RU28362 (0.5 µM) which blocks ^3H-aldosterone binding to the type II (glucocorticoid) receptors. Table 2. Inhibition of 3H-Progesterone Binding to the Bovine Uteral Progesterone Receptors
# [3] = test system: metrazol induced convulsions; assay: animal or person; assay type: in vivo, mice; conditions: Mus musculus, 10 min; IP, 10 mg/kg, 10 minutes prior to metrazol (85 mg/kg); read-out: % Protected
# Method: Experiments were also performed to determine the physiological relevance of neuroactive steroid and GABA receptor interactions by assessing the ability of the compounds of and used in the invention to prevent metrazol induced convulsions in mice. Mice were injected with various doses of the test compounds of the invention, 10 minutes prior to the injection of metrazol. The time to onset of myoclomis (presence of forelimb clonic activity) induced by metrazol was determined by observing each mouse for a period of 30 minutes. […] Table 6: Antimetrazol Activity of Neuroactive Steroids in Mice
# The anticonvulsant tests are similar to that described above. […] The number of animals with tonic and/or clonic convulsions was recorded. In the maximal electroshock test, 50 mA of current at 60 Hz was delivered through corneal electrodes for 200 msec to induce tonic seizure. The ability of compounds to abolish the tonic component was defined as the endpoint. General CNS depression potential was determined by a rotorod test 10 minutes after the injection of compounds where the number of mice staying on a rotating (6 rpm) rod for 1 minute in one of the three trials was determined. […] Table 7. Anticonvulsant Activity of Exemplified Neuroactive Steroids and those of Selected Clinically Useful Anticonvulsants in Mice
# [4] = test system: N.I.H. Swiss-Webster mice; assay: Elevated plus-maze; assay type: in vivo; conditions: Mus musculus, ip, read-out: % Control
# Source text: The theoretical basis for the elevated plus-maze test is similar to that of the light/dark transition test. […] The apparatus consists of two open-arms and two enclosed-arms. The elevated plus-maze test allows for two measures of anxiety, the number of entries into the open-arms and the time spent on the open-arms, both expressed as a percentage of the total number of entries and time spent in/on both the open-arms and enclosed-arms.
# Male N.LH. Swiss-Webster mice (Harlan, Indianapolis, IN) weighing 15-20 g were housed four per cage in polyethylene cages with sawdust bedding. The colony mom was environmentally controlled (22°C) with a 12^- hr light/dark cycle (0600-1800 hr). Food and water were available ad libitum, except during testing. The experiments were run from 0700-1500 hr and groups were counterbalance for time of day effects. Mice were only administered drug or vehicle once.
# The apparatus included two open arms perpendicular to two enclosed arms elevated 50 cm from the floor. Each arm was 50 cm long and the walls of the enclosed arms were 40 cm tall. The maze was made completely of black plexiglass. Incandescent 200 W light bulbs were above each of the open arms to produce a strong contrast between the open arms and the enclosed arms.
# Ten minutes after an injection, the N.I.H. Swiss-Webster mice were placed in the center of the plus-maze facing an open arm. During the 5 min test period, the number of entries onto the open arms and the enclosed arms, and the time spent in the open arms and enclosed arms were measured. All four paws had to be within an arm for the dependent variable to be measured. Therefore, the time spent in the center of the maze is not counted, so the total time spent in the open arms and the enclosed arms may not equal 5 min.
SMILES,IC50 (GR complex) [nM],IMAX (GR complex) [%],responders at 10 mg/kg [3] [%],response vs control in vivo at 10 mg/kg [4] [%],further results
"C[C@H](O)[C@H]1CC[C@H]2[C@@H]3CC[C@H]4C[C@H](O)CC[C@]4(C)[C@H]3CC[C@]12C [5α-pregnan-3α,20α-diol, reference compound]",–,–,–,–,"modulation of [35S]TBPS binding, in words (GR complex): partially modulate; inhibition at 1 µM [1]: 0%; Vogel (%of control) (Rats; 10 µg/kg): 283.3 %of control; Vogel (%of control) (Rats; 20 µg/kg): 267.3 %of control"
"C[C@H](O)[C@H]1CC[C@H]2[C@@H]3CC[C@H]4C[C@H](O)CC[C@]4(C)[C@H]3CC[C@]12C [3α,20α(S)-Dihydroxy-5α-pregnane]",–,–,–,–,Vogel (%of control) (Rats; 10 µg/kg): 193.0 %of control
C[C@]12CCC(=O)C=C1CC[C@@H]1[C@@H]2[C@@H](O)C[C@]2(C=O)[C@@H](C(=O)CO)CC[C@@H]12 [Aldosterone],–,–,–,–,inhibition at 1 µM [1]: 95.5%
"CC(O)C1CCC2C3CCC4CC(O)C(F)CC4(C)C3CCC12C (stereo not drawn) [2β-Fluoro-3α,20α-dihydroxy-5α-pregnane]",–,–,–,–,Vogel (%of control) (Rats; 20 µg/kg): 264.9 %of control
"C[C@H](O)[C@H]1CC[C@H]2[C@@H]3CC[C@@H]4C[C@H](O)CC[C@]4(C)[C@H]3CC[C@]12C [5β-pregnan-3α,20α-diol]",–,–,–,–,"modulation of [35S]TBPS binding, in words (GR complex): partially modulate; % of Inhibition [2]: 0%; inhibition at 1 µM [1]: 0%"
"CC(C)OC1CC2(C)C(CCC3C2CCC2(C)C(C(C)O)CCC32)CC1O (stereo not drawn) [3α,20α-Dihydroxy-2β-isopropoxy-5α-pregnane]",–,–,–,–,Vogel (%of control) (Rats; 10 µg/kg): 169.0 %of control
"CCC[C@H](O)[C@H]1CC[C@H]2[C@@H]3CC[C@H]4C[C@H](O)CC[C@]4(C)[C@H]3CC[C@]12C [3α,20α-Dihydroxy-21-ethyl-5α-pregnane]",–,–,–,–,Vogel (%of control) (Rats; 20 µg/kg): 225.8 %of control
C[C@@]1(O)CC[C@@]2(C)[C@@H](CC[C@@H]3[C@@H]2CC[C@]2(C)[C@@H](C(=O)Cn4ccnc4)CC[C@@H]32)C1 [3α-hydroxy-21-(1'-imidazolyl)-3β-methyl-5α-pregnan-20-one],97,95,75,144,–
"Cc1cc(C)n(CC(=O)[C@H]2CC[C@H]3[C@@H]4CC[C@@H]5C[C@H](O)CC[C@]5(C)[C@H]4CC[C@]23C)n1 [3α-hydroxy-21-(1H-3,5-dimethylpyrazolyl)-5β-pregnan-20-one]",96,77,50,128,–
"CCC(=O)[C@@]1(C)CC[C@H]2[C@@H]3CCC4=CC(=O)CCC4=C3CC[C@@]21C [Example R5020, promegesterone]",–,–,–,–,% of Inhibition [2]: 100%
"C[C@]12CC[C@@H](O)C[C@H]1CC[C@@H]1[C@@H]2CC[C@]2(C)[C@@H](C(=O)Cn3nccn3)CC[C@@H]12 [3α-hydroxy-21-(2H-1,2,3-triazol-2-yl)-5β-pregnan-20-one]",56,79,100,164,–
CC(=O)CCCC#C[C@@]1(O)CC[C@@]2(C)[C@H](CC[C@@H]3[C@@H]2CC[C@]2(C)[C@@H](C(C)=O)CC[C@@H]32)C1 [3α-hydroxy-3β-[6'-oxo-1'-heptynyl]-5β-pregnan-20-one],90,101,62.5,130,–
"CC[C@H](O)[C@H]1CC[C@H]2[C@@H]3CC[C@H]4C[C@H](O)CC[C@]4(C)[C@H]3CC[C@]12C [3α,20α-Dihydroxy-21-methyl-5α-pregnane]",–,–,–,–,Vogel (%of control) (Rats; 10 µg/kg): 157.9 %of control
CC(=O)[C@H]1CC[C@H]2[C@@H]3CC[C@@H]4C[C@@](O)(C#Cc5ccc(C#N)cc5)CC[C@]4(C)[C@H]3CC[C@]12C [3β-(4'-Cyanophenyl)ethynyl-3α-hydroxy-5β-pregnan-20-one],73,92,43.7,169,–
C#CCOCC#C[C@@]1(O)CC[C@@]2(C)[C@H](CC[C@@H]3[C@@H]2CC[C@]2(C)[C@@H](C(C)=O)CC[C@@H]32)C1 [3α-hydroxy-3β-[3-(2'-propynyloxy)-1-propynyl]-5β-pregnan-20-one],28,105,50,178,–
